Assay results taken from BindingDB's records for doi:10.1021/acs.jnatprod.9b00663 (University of Utah, 2019).

Molecular target: Low molecular weight phosphotyrosine protein phosphatase (Homo sapiens) (UniProt P24666)
Test: Inhibition of LMWPTP (unknown origin) using DiFMUP as substrate incubated for 30 mins followed by substrate addition at pH 6.5 by standard phosphatase assay based fluorescence analysis

Low molecular weight phosphotyrosine protein phosphatase (Homo sapiens), sequence (P24666 whole entry, looked up): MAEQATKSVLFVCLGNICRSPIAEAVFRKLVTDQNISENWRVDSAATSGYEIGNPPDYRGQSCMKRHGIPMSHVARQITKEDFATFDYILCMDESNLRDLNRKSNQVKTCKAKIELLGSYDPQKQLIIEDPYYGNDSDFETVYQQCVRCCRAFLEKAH

SMILES | IC50 [µM]
COc1c(C=O)c2c(c3c1CC(C)(C)C3)C(=O)OC(O)C2 (configuration not stated) [3-Hydroxy-6-methoxy-8,8-dimethyl-1-oxo-1,3,4,7,8,9-hexahydro-cyclopenta[h]isochromene-5-carbaldehyde] | > 100
CC1(C)Cc2c(O)c(C=O)c3c(c2C1)C(=O)OC(O)C3 (configuration not stated) [Illudalic acid] | > 100
